pIC50: −log10 of the molar value. Some results are limits rather than exact numbers.

RORγt, sequence (P51449 269-508): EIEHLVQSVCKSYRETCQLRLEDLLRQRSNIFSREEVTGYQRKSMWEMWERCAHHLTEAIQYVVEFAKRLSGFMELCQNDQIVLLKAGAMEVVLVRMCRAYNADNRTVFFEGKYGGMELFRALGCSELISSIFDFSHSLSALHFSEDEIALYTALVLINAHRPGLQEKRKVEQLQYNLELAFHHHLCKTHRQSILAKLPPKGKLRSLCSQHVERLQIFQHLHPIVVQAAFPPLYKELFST

This experiment has as its target RORγt (Homo sapiens (Human), UniProt P51449). Put plainly: Gal4 ligand binding assay (RORγt Gal fusion luciferase reporter assay in HEK293T cells). Format: cell-based. Conditions: RORγt inverse agonists in RORγt Gal fusion assay. How it is done: The N-terminal DNA binding domains (DBD) of the native RORγ and RORγt receptors have been substituted with that of the yeast GAL4-DBD and stably transfected in HEK293T cells that also stably express luciferase under the regulation by upstream activation sequence of yeast Gal4. These cells constitutively express high level RORγ activity due to binding of endogenous co-factors. Both agonist and inverse agonist activity can be detected. The assay was performed according to kit manufacturer's instructions as follows. 10 mM compound stocks were diluted serially 1:3 with DMSO and further diluted with provided media to generate 10 titration points from 60 μM to 3 nM. These treatment conditions were added to the plates as 2× media in 100 μL volume. Each plate includes a positive control with 10 titration points as well as 6 negative control wells with vehicle only, with final DMSO concentration of 0.2%. RORγ reporter cells were rapidly thawed and added to the plates in 100 μL volume. The plates were incubated for 24 h in a 37° C. humidified 5% CO2 incubator. Media was removed before the addition of room temperature luciferous detection substrate. After 5 minute incubation, relative light units (RLUs) were quantified using a plate reading luminometer. Data was normalized to […] with only 0.2%0DMSO. Before establishing internal controls, ursolic acid was used as control.
On the technique in general: Reporter assays use an easily measured gene product as a stand-in for the process of interest.
With `CCc1cc(CN2CC3(CCN(C(=O)OC(C)(C)C)C3)C2)ccc1-c1ccc(C(O)(C(F)(F)F)C(F)(F)F)cc1` [Example 38, tert-butyl 2-((2-ethyl-4′-(1,1,1,3,3,3-hexafluoro-2-hydroxypropan-2-yl)-[1,1′-biphenyl]-4-yl)methyl)-2,6-diazaspiro[3.4]octane-6-carboxylate], the pIC50 (in general, the negative decadic logarithm of the IC50, by convention in mol/L) is 6.60 to 7.30. Then `CCc1nc(CN2CC3(C2)CN(S(C)(=O)=O)C3)ccc1-c1ccc(C(O)(C(F)(F)F)C(F)(F)F)cc1C` [Example 73, 2-(4-(2-ethyl-6-((6-(methylsulfonyl)-2,6-diazaspiro[3.3]heptan-2-yl)methyl)pyridin-3-yl)-3-methylphenyl)-1,1,1,3,3,3-hexafluoropropan-2-ol], with < 6.60; and `CC(C)c1cc(CN2CC3(C2)CN(S(C)(=O)=O)C3)c(F)cc1-c1ccc(C(O)(C(F)(F)F)C(F)(F)F)cc1Cl` [Example 81, 2-(2-chloro-5′-fluoro-2′-isopropyl-4′-((6-(methylsulfonyl)-2,6-diazaspiro[3.3]heptan-2-yl)methyl)-[1,1′-biphenyl]-4-yl)-1,1,1,3,3,3-hexafluoropropan-2-ol], with > 7.30. `CC(C)c1cc(CN2CC3(C2)CN(S(C)(=O)=O)C3)c(F)cc1-c1ccc(C(O)(C(F)(F)F)C(F)(F)F)cc1` [Example 78, 1,1,1,3,3,3-hexafluoro-2-(5′-fluoro-2′-isopropyl-4′-((6-(methylsulfonyl)-2,6-diazaspiro[3.3]heptan-2-yl)methyl)-[1,1′-biphenyl]-4-yl)propan-2-ol]: the negative logarithm of the IC50 (pIC50) was > 7.30. Compound `CCc1cc(CN2CC3(C2)CN(S(C)(=O)=O)C3)cnc1-c1ccc(C(O)(C(F)(F)F)C(F)(F)F)cc1C` [Example 62, 2-(4-(3-ethyl-5-((6-(methylsulfonyl)-2,6-diazaspiro[3.3]heptan-2-yl)methyl)pyridin-2-yl)-3-methylphenyl)-1,1,1,3,3,3-hexafluoropropan-2-ol] showed a negative logarithm of the IC50 (pIC50) of 6.60 to 7.30. For `CCc1cc(C(O)(C(F)(F)F)C(F)(F)F)ccc1-c1c(F)cc(CN2CC3(C2)CN(S(C)(=O)=O)C3)c(F)c1C1CC1` [Example 90, 2-(2′-cyclopropyl-2-ethyl-3′,6′-difluoro-4′-((6-(methylsulfonyl)-2,6-diazaspiro[3.3]heptan-2-yl)methyl)-[1,1′-biphenyl]-4-yl)-1,1,1,3,3,3-hexafluoropropan-2-ol], the pIC50 is > 7.30. For the compound `CCc1cc(CN2CCC3(C2)CS(=O)(=O)C3)ccc1-c1ccc(C(O)(C(F)(F)F)C(F)(F)F)cc1` [Example 17, 6-((2-ethyl-4′-(1,1,1,3,3,3-hexafluoro-2-hydroxypropan-2-yl)-[1,1′-biphenyl]-4-yl)methyl)-2-thia-6-azaspiro[3.4]octane 2,2-dioxide], the pIC50 was 6.60 to 7.30. In the case of `CCc1cc(CN2CCC(S(C)(=O)=O)CC2)ccc1-c1ccc(C(O)(C(F)(F)F)C(F)(F)F)cc1` [Example 10, 2-(2′-ethyl-4′-((4-(methylsulfonyl)piperidin-1-yl)methyl)-[1,1′-biphenyl]-4-yl)-1,1,1,3,3,3-hexafluoropropan-2-ol] it was > 7.30. On to `CCc1cc(CN2CC3(C2)CN(S(C)(=O)=O)C3)ccc1-c1ccc(C(O)(C(F)(F)F)C(F)(F)F)cc1F` [Example 34, 2-(2′-ethyl-2-fluoro-4′-((6-(methylsulfonyl)-2,6-diazaspiro[3.3]heptan-2-yl)methyl)-[1,1′-biphenyl]-4-yl)-1,1,1,3,3,3-hexafluoropropan-2-ol], for which the pIC50 was > 7.30. Turning to `CCc1cc(C(O)(C(F)(F)F)C(F)(F)F)ccc1-c1ccc(CN2CC3(C2)CN(S(C)(=O)=O)C3)cc1C` [Example 76, 2-(2-ethyl-2′-methyl-4′-((6-(methylsulfonyl)-2,6-diazaspiro[3.3]heptan-2-yl)methyl)-[1,1′-biphenyl]-4-yl)-1,1,1,3,3,3-hexafluoropropan-2-ol], the negative-log IC50 (pIC50) is > 7.30. Take `CCc1cc(CN2CCC3(CCNC3=O)C2)ccc1-c1ccc(C(O)(C(F)(F)F)C(F)(F)F)cc1` (stereo not drawn) [Example 53, 7-((2-ethyl-4′-(1,1,1,3,3,3-hexafluoro-2-hydroxypropan-2-yl)-[1,1′-biphenyl]-4-yl)methyl)-2,7-diazaspiro[4.4]nonan-1-one]: the pIC50 is 6.60 to 7.30.

`CCC(C)c1cc(CN2CC3(C2)CN(S(C)(=O)=O)C3)ccc1-c1ccc(C(O)(C(F)(F)F)C(F)(F)F)cc1` (stereo not drawn) [Example 13, 2-(2′-(sec-butyl)-4′-((6-(methylsulfonyl)-2,6-diazaspiro[3.3]heptan-2-yl)methyl)-[1,1′-biphenyl]-4-yl)-1,1,1,3,3,3-hexafluoropropan-2-ol]: the pIC50 is > 7.30. Then `CCc1cc(CN2CC(CNS(C)(=O)=O)C2)ccc1-c1ccc(C(O)(C(F)(F)F)C(F)(F)F)cc1` [Example 32, N-((1-((2-ethyl-4′-(1,1,1,3,3,3-hexafluoro-2-hydroxypropan-2-yl)-[1,1′-biphenyl]-4-yl)methyl)azetidin-3-yl)methyl)methanesulfonamide], with < 6.60; and `CCc1cc(CN2CC3(C2)CN(S(C)(=O)=O)C3)cnc1-c1ccc(C(O)(C(F)(F)F)C(F)(F)F)cc1` [Example 52, 2-(4-(3-ethyl-5-((6-(methylsulfonyl)-2,6-diazaspiro[3.3]heptan-2-yl)methyl)pyridin-2-yl)phenyl)-1,1,1,3,3,3-hexafluoropropan-2-ol], with 6.60 to 7.30. Then `Cc1cc(C(O)(C(F)(F)F)C(F)(F)F)ccc1-c1ccc(CN2CC3(C2)CS(=O)(=O)C3)cc1C(C)C` [Example 12, 6-((4′-(1,1,1,3,3,3-hexafluoro-2-hydroxypropan-2-yl)-2-isopropyl-2′-methyl-[1,1′-biphenyl]-4-yl)methyl)-2-thia-6-azaspiro[3.3]heptane 2,2-dioxide], with 6.60 to 7.30.

For the compound `CCc1cc(CN2CC3(CCCN(S(C)(=O)=O)C3)C2)ccc1-c1ccc(C(O)(C(F)(F)F)C(F)(F)F)cc1` [Example 19, 2-(2′-ethyl-4′-((6-(methylsulfonyl)-2,6-diazaspiro[3.5]nonan-2-yl)methyl)-[1,1′-biphenyl]-4-yl)-1,1,1,3,3,3-hexafluoropropan-2-ol], the pIC50 is 6.60 to 7.30. Then `CN(C)C(=O)c1cc(CN2CC3(C2)CN(S(C)(=O)=O)C3)ccc1-c1ccc(C(O)(C(F)(F)F)C(F)(F)F)cc1` [Example 55, 4′-(1,1,1,3,3,3-hexafluoro-2-hydroxypropan-2-yl)-N,N-dimethyl-4-((6-(methylsulfonyl)-2,6-diazaspiro[3.3]heptan-2-yl)methyl)-[1,1′-biphenyl]-2-carboxamide], with < 6.60; and `CS(=O)(=O)N1CC2(CN(Cc3ccc(-c4ccc(C(O)(C(F)(F)F)C(F)(F)F)cc4)c(C4CC4)c3)C2)C1` [Example 42, 2-(2′-cyclopropyl-4′-((6-(methylsulfonyl)-2,6-diazaspiro[3.3]heptan-2-yl)methyl)-[1,1′-biphenyl]-4-yl)-1,1,1,3,3,3-hexafluoropropan-2-ol], with > 7.30; and `CCc1cc(CN2CC3(C2)CS(=O)(=O)C3)ccc1-c1ccc(C(O)(C(F)(F)F)C(F)(F)F)cc1C` [Example 18, 6-((2-ethyl-4′-(1,1,1,3,3,3-hexafluoro-2-hydroxypropan-2-yl)-2′-methyl-[1,1′-biphenyl]-4-yl)methyl)-2-thia-6-azaspiro[3.3]heptane 2,2-dioxide], with > 7.30. In the case of `CC(C)c1c(F)c(CN2CCC3(C2)CN(S(C)(=O)=O)C3)cc(F)c1-c1ccc(C(O)(C(F)(F)F)C(F)(F)F)cc1` [Example 74, 2-(3′,6′-difluoro-2′-isopropyl-4′-((2-(methylsulfonyl)-2,6-diazaspiro[3.4]octan-6-yl)methyl)-[1,1′-biphenyl]-4-yl)-1,1,1,3,3,3-hexafluoropropan-2-ol] it was 6.60 to 7.30; in that of `CC(C)c1cc(CN2CC3(C2)CN(S(C)(=O)=O)C3)ccc1-c1ccc(C(O)(C(F)(F)F)C(F)(F)F)cc1` [Example 43, 1,1,1,3,3,3-hexafluoro-2-(2′-isopropyl-4′-((6-(methylsulfonyl)-2,6-diazaspiro[3.3]heptan-2-yl)methyl)-[1,1′-biphenyl]-4-yl)propan-2-ol], > 7.30. Take `CC(C)c1cc(CN2CC3(C2)CN(S(C)(=O)=O)C3)c(F)c(F)c1-c1ccc(C(O)(C(F)(F)F)C(F)(F)F)cc1` [Example 14, 2-(2′,3′-difluoro-6′-isopropyl-4′-((6-(methylsulfonyl)-2,6-diazaspiro[3.3]heptan-2-yl)methyl)-[1,1′-biphenyl]-4-yl)-1,1,1,3,3,3-hexafluoropropan-2-ol]: the pIC50 is > 7.30. Then `CCc1c(F)c(CN2CC3(C2)CN(S(C)(=O)=O)C3)cc(F)c1-c1ccc(C(O)(C(F)(F)F)C(F)(F)F)cc1C` [Example 68, 2-(2′-ethyl-3′,6′-difluoro-2-methyl-4′-((6-(methylsulfonyl)-2,6-diazaspiro[3.3]heptan-2-yl)methyl)-[1,1′-biphenyl]-4-yl)-1,1,1,3,3,3-hexafluoropropan-2-ol], with > 7.30; and `Cc1cc(C(O)(C(F)(F)F)C(F)(F)F)ccc1-c1c(F)cc(CN2CC3(C2)CN(S(C)(=O)=O)C3)c(F)c1C1CC1` [Example 89, 2-(2′-cyclopropyl-3′,6′-difluoro-2-methyl-4′-((6-(methylsulfonyl)-2,6-diazaspiro[3.3]heptan-2-yl)methyl)-[1,1′-biphenyl]-4-yl)-1,1,1,3,3,3-hexafluoropropan-2-ol], with > 7.30.

The values above are taken from US11242350B2, “Spirocyclic ROR-gamma modulators” (Escalier Biosciences B.V., priority 2018, dated 2022).
